Test results as given in patent publication US20240398740A1, “THERAPEUTIC COMPOSITION, METHODS, AND USES FOR THE CONTROL OF SEIZURES” (priority 2022, published 2024).
Entries after “also recorded” stand apart in the source; their conditions may differ. Like-named read-outs stand apart in the source and are kept apart here.

Assays:
bicuculline spiking = experiment: acute bicuculline seizure focus model in nonhuman primates (surface EEG); format: in vivo, Macaca nemestrina; details: for effect on bicuculline spiking after oral dose: 10 mg/kg; for block of bicuculline spiking by comparator drugs: IV administration (FIG. 13)
[1] = diuresis (urine production) in anesthetized, catheterized macaque monkeys
afterdischarge activity = details: cortical stimulation, human patient; cited from earlier work
epileptiform activity = experiment: primate neocortical seizure model; format: in vivo; details: Furosemide at 10 mg/kg IV, bumetanide at 2 mg/kg IV
Excerpt: The primate neocortical seizure model was used here for testing the effects of NKCC antagonists on epileptiform activity. This model and the techniques used to analyze the data was originally developed by Haglund and Hochman for the purpose of studying intrinsic optical signals in the human and primate brain, and how these signals could be used to map spread of seizure activity in the neocortex (Haglund et al. 1993, Haglund and Hochman, 2007). […] The afterdischarge protocol developed for human intraoperative studies as shown in the second figure below was also used in primate studies. As well, the physical properties of the optical signals from the brain generated by epileptiform activity (not shown here) (Haglund and Hochman, 2005, Haglund and Hochman 2007).

[2] = tested on: spontaneous interictal spiking; details: 20 mg IV furosemide; cited from earlier work
[3] = in vivo
[4] = repeated dosing in healthy adult subjects: BUN, creatinine, serum chloride, urine specific gravity as signs of diuresis; format: in vivo, humans; details: healthy adults, eight capsules of 16 mg every 24 hours, day 1 to day 8
Experimental: Pharmacokinetic (PK) blood samples were collected and analyzed pre-dosing to establish baseline levels. Analysis was also done on day1, day 3, day 4, day 5, day 6, day 7, and day 8 following dosing. The samples were analysed for BUN (blood urea nitrogen), creatinine, serum chloride, and urine specific gravity. Diuresis is indicated by an out of proportion increase in serum BUN compared to creatinine (BUN increase out of proportion to creatinine), a decrease in urine specific gravity, and an increase in serum chloride. […] The grey horizontal lines in FIGS. 28-29 are indicative of an upper and a lower range for accepted normal values. The control-subject (placebo) are indicated with white-and-black dashed lines and grey dots.

fear-potentiated startle = experiment: rat fear-potentiated startle (FPS) model of conditioned anxiety; format: in vivo, Long-Evans rats; details: 35 mg/kg IV
[5] = first-pass metabolism and intramuscular absorption of Bumetanide Dibenzylamide; format: in vivo
Excerpt: Refinement opportunities may include extended or controlled release oral capsule or tablet or use of a transdermal formulation. Intramuscular data shown below supports the development of a potential transdermal therapy.

[6] = tested on: maximal pentylenetetrazol (PTZ) seizures; details: pharmacology review provided to the FDA; cited from earlier work
[7] = tested on: maximal electroshock (MES) seizures; details: pharmacology review provided to the FDA; cited from earlier work
4-AP bursting = 4-AP bursting in primate neocortical seizure model; format: in vivo; details: Keppra 2×40 mg/kg
ADs and hand-twitching = experiment: stimulation-evoked afterdischarges (ADs) and hand-twitching in primate model; details: in vivo
Experimental: Stimulation-evoked […] evoked by a 4 sec train of 60 Hz biphasic pulses at 4-20 mA using a bipolar stimulating electrode (5 mm interelectrode distance) powered by a constant current source (Ojemann Cortical Stimulator, Integra Life Sciences Corporation, NJ, U.S.A.) placed on the sensory cortex, or by passing current between two of the three surface electrodes. The AD threshold was determined by stimulating at the lowest level that reliably triggered AD activity three times in a row and thresholds remained constant throughout recordings. AD activity was reliably elicited on the sensory cortex during the same experiments in which a bicuculline focus was created on the motor cortex. […] The brain is electrically stimulated for 4 seconds at varying current magnitudes until the “after discharge threshold” is determined: the magnitude of stimulation current that is just sufficient to elicit ADs. The stimulation artifacts are shown in the top lefthand trace, denoted by stars (*). The ADs are shown by orange bars. One can see that, in this case, 7 mA was not sufficient for eliciting ADs, but 8 mA reliably generated ADs. […] In this way, changes in the effect of a treatment on this type of electrical stimulation-evoked epileptiform activity can be quantified by measuring changes in the AD-threshold. From Haglund and Hochman, 2007.

[8] = PO gavage, CMC-water suspension, mol-Eq to 10 mg/kg bumetanide, bicuculline-generated spikes, pretreatment vs maximum change
[9] = PO, mol-Eq to 10 mg/kg bumetanide
[10] = PO, mol-Eq to 10 mg/kg bumetanide, interspike intervals
[11] = PO, 10 mg/kg bumetanide or mol-Eq

CCCCNc1cc(C(=O)N(CC)CC)cc(S(N)(=O)=O)c1Oc1ccccc1 [bumetanide diethylamide]
Average % change in spike size (bicuculline spiking; [8]): 40% | Time to 50% recovery for spike sizes (bicuculline spiking; [9]): 59 min | Time to 50% recovery of ISI (bicuculline spiking; [9]): 59 min | Average % change in ISI (bicuculline spiking; in vivo): 65% | percentage change in urine production over time ([1]; FIG. 21, compared to bumetanide): lower percentage change in urine production over time compared to bumetanide | rate of urine production over time ([1]; FIG. 22, compared to bumetanide): lower rate of urine production over time compared to bumetanide | average rate of urine production after treatment ([1]; FIG. 23, compared to bumetanide): lower average rate of urine production compared to bumetanide

NS(=O)(=O)c1cc(C(=O)O)c(NCc2ccco2)cc1Cl [Furosemide, furosemide]
afterdischarge activity after treatment (afterdischarge activity): abruptly blocked | afterdischarge threshold (afterdischarge activity): increased the afterdischarge threshold | anticonvulsant effect in primate seizure model (epileptiform activity): block seizures | effect on spontaneous interictal spiking [2]: Blockade of Spontaneous Interictal Spiking | diuretic potency relative to bumetanide ([1]; in vivo): about 1/10

CCCCNc1cc(C(=O)N2CCOCC2)cc(S(N)(=O)=O)c1Oc1ccccc1 [NPT 2024, Bumetanide Morpholino Amide]
average rate of urine production after treatment [3]: lower average rate of urine production compared to bumetanide | percentage change in urine production over time [3]: lower percentage change in urine production over time compared to bumetanide | rate of urine production over time [3]: lower rate of urine production over time compared to bumetanide | Average % change in spike size (bicuculline spiking; [8]): 44% | Time to 50% recovery for spike sizes (bicuculline spiking; [9]): 110 min | Time to 50% recovery of ISI (bicuculline spiking; [9]): 180 min | Average % change in ISI (bicuculline spiking; [10]): 37.5% | interspike intervals compared with bumetanide parent (bicuculline spiking; n=4, FIG. 8): dramatic increase in interspike intervals | spikes per minute compared with bumetanide parent (bicuculline spiking; n=4, FIG. 9): dramatic decrease in spikes per minute | average spike height compared with bumetanide parent (bicuculline spiking; n=4, FIG. 10): dramatic decrease in the average spike height

CCCCNc1cc(C(=O)N(Cc2ccccc2)Cc2ccccc2)cc(S(N)(=O)=O)c1Oc1ccccc1 [NPT 2042, N, N-dibenzyl 3-aminosulfonyl-5-butylamino-4-phenoxybenzamide]
indication of diuresis (BUN, creatinine, serum chloride, urine specific gravity) [4]: no indication of diuresis | anxiolytic effect in the FPS model (fear-potentiated startle): anxiolytic effect in the FPS model similar in magnitude to that elicited by equivalent (mg/kg) doses of bumetanide | average rate of urine production after treatment [3]: lower average rate of urine production compared to bumetanide | percentage change in urine production over time [3]: lower percentage change in urine production over time compared to bumetanide | rate of urine production over time [3]: lower rate of urine production over time compared to bumetanide | Average % change in ISI (bicuculline spiking; in vivo): 26% | Average % change in spike size (bicuculline spiking; in vivo): 35.2% | Time to 50% recovery for spike sizes (bicuculline spiking; in vivo): 160 min | Time to 50% recovery of ISI (bicuculline spiking; in vivo): 126 min | time postinjection of recovery to baseline pretreatment spiking (bicuculline spiking; in vivo): > 155 min | effect on bicuculline spiking after intravenous dose (bicuculline spiking; in vivo, iv, 2 mg/kg): near-complete blockade of the bicuculline spiking | time postinjection of traces showing profound, nearly complete blockade of epileptiform activity (bicuculline spiking; in vivo, iv, 2 mg/kg): 72 min | effect on bicuculline spiking after oral dose (bicuculline spiking; in vivo, po): reduced spike height and frequency of bicuculline spiking; also recorded: transiently mediate a reduction in size and frequency of spiking | first-pass metabolism by the liver ([5]; in vivo): susceptible to high first-pass metabolism by the liver | absorption after intramuscular administration ([5]; intramuscular): can be absorbed through the microvessels of the muscle into the circulation

CC[C@@H](C(N)=O)N1CCCC1=O [Keppra, Levetiracetam]
anticonvulsant effect in primate seizure model (epileptiform activity): clear anticonvulsant effect | anticonvulsant activity in PTZ test [6]: no anticonvulsant activity | anticonvulsant activity in MES test [7]: no anticonvulsant activity | block of 4-AP bursting (4-AP bursting): does NOT block 4-AP bursting | block of ADs and hand-twitching (ADs and hand-twitching): does not | block of bicuculline spiking by comparator drugs (bicuculline spiking): block bicuculline spiking; also recorded: suppress bicuculline spiking

CCCC(C)C1(CC)C(=O)NC(=S)NC1=O (stereo not shown) [pentothal, sodium thiopental]
block of 4-AP bursting (4-AP bursting): block 4-AP bursting

CCCCNc1cc(C(=O)O)cc(S(N)(=O)=O)c1Oc1ccccc1 [Bumetanide, 3-(Aminosulfonyl)-5-(butylamino)-4-phenoxybenzoic acid, reference compound]
anticonvulsant effect in primate seizure model (epileptiform activity): block seizures | block of 4-AP bursting (4-AP bursting): block 4-AP bursting | block of ADs and hand-twitching (ADs and hand-twitching): block ADs and hand-twitching | block of bicuculline spiking by comparator drugs (bicuculline spiking): block bicuculline spiking | block of bicuculline spiking by comparator drugs (bicuculline spiking; listed as bumetanide): suppress bicuculline spiking | time postinjection of traces showing profound, nearly complete blockade of epileptiform activity (bicuculline spiking; IV, 2 mg/kg bumetanide or mol-Eq): 81 min | effect on bicuculline spiking after intravenous dose (bicuculline spiking; IV, 2 mg/kg bumetanide or mol-Eq, in PEG-200): near-complete blockade of the bicuculline spiking | time postinjection of recovery to baseline pretreatment spiking (bicuculline spiking; IV, 2 mg/kg bumetanide or mol-Eq, NPT 2042 experiment ended before recovery): ~120 min | Average % change in spike size (bicuculline spiking; [8]): 23.7% | effect on bicuculline spiking after oral dose (bicuculline spiking; [11]): reduced spike height and frequency of bicuculline spiking; also recorded: transiently mediate a reduction in size and frequency of spiking | Time to 50% recovery for spike sizes (bicuculline spiking; [9]): 35 min | Time to 50% recovery of ISI (bicuculline spiking; [9]): 163 min | Average % change in ISI (bicuculline spiking; [10]): 68.7% | diuretic response [1, 11]: potent diuretic effect

O=C1NC(c2ccccc2)(c2ccccc2)C(=O)N1COP(=O)(O)O [Fosphenatoin]
block of 4-AP bursting (4-AP bursting): block 4-AP bursting | block of ADs and hand-twitching (ADs and hand-twitching): block ADs and hand-twitching | block of bicuculline spiking by comparator drugs (bicuculline spiking): does not
